Reference: patent publication US10125118B2, “Heteroaryl compounds and their use as therapeutic drugs” (Dong-A Socio Holdings Co., Ltd., priority 2015, dated 2018)

Assays:
[1] = molecular target: human c-MER catalytic domain (Homo sapiens (Human), UniProt Q12866); test: LanthaScreen TR-FRET kinase assay, c-MER; conditions: read-out: Mer TK inhibition (IC50); Biochemical IC50, TR-FRET, 10 uM ATP
[2] = test system: CD8-MerTK in Ba/F3-CDM cells; test: In cell MER kinase assay, Ba/F3-CDM cell proliferation without IL-3 (Celltiter-Glo); type: cell-based, murine; conditions: 48 hours compound treatment, read-out: Cell growth inhibition (GI50)
Procedure, shortened: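 Ba/F3 cells, IL-3-dependent, transfected with CD8-MerTK and grown without IL-3 in DMEM/10% FBS. IL-3-supplemented Ba/F3 cells run in parallel as a cytotoxicity control.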

human c-MER catalytic domain, sequence (Q12866 587-858): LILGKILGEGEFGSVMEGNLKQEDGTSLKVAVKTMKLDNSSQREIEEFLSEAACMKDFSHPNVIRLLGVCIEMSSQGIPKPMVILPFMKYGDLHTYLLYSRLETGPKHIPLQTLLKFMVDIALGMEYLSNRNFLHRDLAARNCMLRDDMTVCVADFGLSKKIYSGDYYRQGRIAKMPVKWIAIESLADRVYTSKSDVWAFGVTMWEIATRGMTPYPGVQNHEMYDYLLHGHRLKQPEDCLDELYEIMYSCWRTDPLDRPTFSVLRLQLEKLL

| SMILES | IC50 [1] [nM] | GI50 [2] [nM] |
| --- | --- | --- |
| CCc1cc(CO[C@H]2CNC[C@@H]2NC(=O)c2cc(-c3ccc(CO)cc3)cnc2N)ccc1C [Example 389, 2-amino-N-((3S,4S)-4-((3-ethyl-4-methylbenzyl)oxy)pyrrolidin-3-yl)-5-(4-(hydroxymethyl)phenyl)nicotinamide] | < 10 | 100 to 500 |
| Cn1cc(-c2cnc(N)c(C(=O)N[C@H]3CCC[C@@H]3OCc3ccc(C#CCCO)cc3)c2)cn1 [Example 249, 2-amino-N-((1S,2S)-2-((4-(4-hydroxybut-1-yn-1-yl)benzyl)oxy)-cyclopentyl)-5-(1-methyl-1H-pyrazol-4-yl)nicotinamide] | < 10 | > 1000 |
| CN1CCN(Cc2ccc(-c3ccc(CO[C@H]4CCC[C@@H]4NC(=O)c4cc(-c5ccccc5)cnc4N)cc3)cc2)CC1 [Example 371, 2-amino-N-((1S,2S)-2-((4′-((4-methylpiperazin-1-yl)methyl)-[1,1′-biphenyl]-4-yl)methoxy)cyclopentyl)-5-phenylnicotinamide] | < 10 | < 100 |
| CC(c1ccc(-c2ccc(CO[C@H]3CCC[C@@H]3NC(=O)c3cc(F)cnc3N)cc2)cc1)N1CCN(C)CC1 (stereo partly drawn) [Example 232, 2-amino-5-fluoro-N-((1S,2S)-2-((4′-(1-(4-methylpiperazin-1-yl)-ethyl)-[1,1′-biphenyl]-4-yl)methoxy)cyclopentyl)nicotinamide] | < 10 | 500 to 1000 |
| CN1CCN(Cc2ccc(-c3ccc(CO[C@H]4CCC[C@@H]4NC(=O)c4cc(-c5ccc(F)c(F)c5)cnc4N)cc3)cc2)CC1 [Example 364] | < 10 | < 100 |
| Cn1cc(-c2cnc(N)c(C(=O)N[C@H]3CCC[C@@H]3OCc3ccc(-c4ccc(C5(N6CCN(CCO)CC6)CC5)cc4)cc3)c2)cn1 [Example 220, 2-amino-N-((1S,2S)-2-((4′-(1-(4-(2-hydroxyethyl)piperazin-1-yl)cyclopropyl)-[1,1′-biphenyl]-4-yl)methoxy)cyclopentyl)-5-(1-methyl-1H-pyrazol-4-yl)nicotinamide] | < 10 | < 100 |
| CN1CCN(Cc2ccc(-c3ccc(CO[C@H]4CCC[C@@H]4NC(=O)c4cc(-c5cnn(C)c5)cnc4N)cc3)cn2)CC1 [Example 203, 2-amino-5-(1-methyl-1H-pyrazol-4-yl)-N-((1S,2S)-2-((4-(6-((4-methylpiperazin-1-yl)methyl)pyridin-3-yl)benzyl)oxy)cyclopentyl)nicotinamide] | < 10 | 100 to 500 |
| CN1CCN(Cc2ccc(-c3ccc(CO[C@H]4CCC[C@@H]4NC(=O)c4cc(-c5ccc(N6CCOCC6)cc5)cnc4N)cc3)cc2)CC1 [Example 381, 2-amino-N-((1S,2S)-2-((4′-((4-methylpiperazin-1-yl)methyl)-[1,1′-biphenyl]-4-yl)methoxy)cyclopentyl)-5-(4-morpholinophenyl)nicotinamide] | < 10 | < 100 |
| CN1CCN(Cc2ccc(-c3ccc(CO[C@H]4COC[C@@H]4NC(=O)c4cc(-c5cnn(C)c5)cnc4N)cc3)cc2)CC1 [Example 448, 2-amino-5-(1-methyl-1H-pyrazol-4-yl)-N-((3S,4R)-4-((4′-((4-methylpiperazin-1-yl)methyl)-[1,1′-biphenyl]-4-yl)methoxy)tetrahydrofuran-3-yl)-nicotinamide] | < 10 | < 100 |
| CC1CCN(Cc2ccc(-c3cnc(N)c(C(=O)N[C@H]4CCC[C@@H]4OCc4ccc(-c5ccc(CN6CCN(C)CC6)cc5)cc4)c3)cc2)CC1 [Example 378, 2-amino-N-((1S,2S)-2-((4′-((4-methylpiperazin-1-yl)methyl)-[1,1′-biphenyl]-4-yl)methoxy)cyclopentyl)-5-(4-((4-methylpiperidin-1-yl)methyl)phenyl)-nicotinamide] | < 10 | < 100 |
| CN1CCN(Cc2ccc(-c3ccc(CO[C@H]4CCC[C@@H]4NC(=O)c4cc(-c5ccc(F)cc5)cnc4N)cc3)cc2)CC1 [Example 363, 2-amino-5-(4-fluorophenyl)-N-((1S,2S)-2-((4′-((4-methylpiperazin-1-yl)methyl)-[1,1′-biphenyl]-4-yl)methoxy)cyclopentyl)nicotinamide] | < 10 | 100 to 500 |
| Cn1cc(-c2cnc(N)c(C(=O)N[C@H]3CCC[C@@H]3OCc3ccc(-c4ccc(CN5CCN(CCO)CC5)cc4Cl)cc3)c2)cn1 [Example 206, 2-amino-N-((1S,2S)-2-((2′-chloro-4′-((4-(2-hydroxyethyl)-piperazin-1-yl)methyl)-[1,1′-biphenyl]-4-yl)methoxy)cyclopentyl)-5-(1-methyl-1H-pyrazol-4-yl)nicotinamide] | < 10 | 100 to 500 |
| CN1CCN(c2ccc(-c3ccc(CO[C@H]4CCC[C@@H]4NC(=O)c4cc(-c5cnn(C)c5)cnc4N)cc3)cn2)CC1 [Example 148, 2-amino-5-(1-methyl-1H-pyrazol-4-yl)-N-((1S,2S)-2-((4-(6-(4-methylpiperazin-1-yl)pyridin-3-yl)benzyl)oxy)cyclopentyl)nicotinamide] | < 10 | > 1000 |
| Cn1cc(-c2cnc(N)c(C(=O)N[C@H]3CCC[C@@H]3OCc3ccc(-c4ccc(CCN)cc4)cc3)c2)cn1 [Example 145, 2-amino-N-((1S,2S)-2-((4′-(2-aminoethyl)-[1,1′-biphenyl]-4-yl)methoxy)cyclopentyl)-5-(1-methyl-1H-pyrazol-4-yl)nicotinamide] | < 10 | > 1000 |
| Cn1cc(-c2cnc(N)c(C(=O)N[C@H]3CCC[C@@H]3OCc3ccc(-c4ccc(CC5CCN(CCO)CC5)cc4)cc3)c2)cn1 [Example 240, 2-amino-N-((1S,2S)-2-((4′-((1-(2-hydroxyethyl)piperidin-4-yl)-methyl)-[1,1′-biphenyl]-4-yl)methoxy)cyclopentyl)-5-(1-methyl-1H-pyrazol-4-yl)-nicotinamide] | < 10 | < 100 |
| Cc1ccc(CO[C@H]2CNC[C@@H]2NC(=O)c2cc(-c3cnn(C)c3)cnc2N)cc1 [Example 415, 2-amino-5-(1-methyl-1H-pyrazol-4-yl)-N-((3S,4S)-4-((4-methylbenzyl)oxy)pyrrolidin-3-yl)nicotinamide] | < 10 | > 1000 |
| CN1CCN(Cc2ccc(-c3ccc(CO[C@H]4CCC[C@@H]4NC(=O)c4cc(-c5ccc(F)nc5)cnc4N)cc3)cc2)CC1 [Example 386, 6-amino-6′-fluoro-N-((1S,2S)-2-((4′-((4-methylpiperazin-1-yl)methyl)-[1,1′-biphenyl]-4-yl)methoxy)cyclopentyl)-[3,3′-bipyridine]-5-carboxamide] | < 10 | < 100 |
| C[C@H](c1ccc(-c2ccc(CO[C@H]3CCC[C@@H]3NC(=O)c3cc(-c4ccc(F)nc4)cnc3N)cc2)cc1)N1CCN(CCO)CC1 [Example 227, 6-amino-6′-fluoro-N-((1S,2S)-2-((4′-((R)-1-(4-(2-hydroxyethyl)-piperazin-1-yl)ethyl)-[1,1′-biphenyl]-4-yl)methoxy)cyclopentyl)-[3,3′-bipyridine]-5-carboxamide] | < 10 | < 100 |
| CC(c1ccc(-c2ccc(CO[C@H]3CCC[C@@H]3NC(=O)c3cc(C#N)cnc3N)cc2)cc1)N1CCN(C)CC1 (stereo partly drawn) [Example 233, 2-amino-5-cyano-N-((1S,2S)-2-((4′-(1-(4-methylpiperazin-1-yl)-ethyl)-[1,1′-biphenyl]-4-yl)methoxy)cyclopentyl)nicotinamide] | < 10 | 100 to 500 |
| CC(c1ccc(-c2ccc(CO[C@H]3CCC[C@@H]3NC(=O)c3cccnc3N)cc2)cc1)N1CCN(C)CC1 (stereo partly drawn) [Example 235, 2-amino-N-((1S,2S)-2-((4′-(1-(4-methylpiperazin-1-yl)ethyl)-[1,1′-biphenyl]-4-yl)methoxy)cyclopentyl)nicotinamide] | < 10 | 500 to 1000 |
| CN1CCN(Cc2ccc(-c3ccc(CO[C@H]4CCC[C@@H]4NC(=O)c4cc(-c5cnn(C)c5)cnc4N)cc3)cc2F)CC1 [Example 195, 2-amino-N-((1S,2S)-2-((3′-fluoro-4′-((4-methylpiperazin-1-yl)-methyl)-[1,1′-biphenyl]-4-yl)methoxy)cyclopentyl)-5-(1-methyl-1H-pyrazol-4-yl)-nicotinamide] | < 10 | < 100 |
| Cn1cc(-c2cnc(N)c(C(=O)N[C@H]3COC[C@@H]3OCc3ccc(-c4ccc(CN5CCN(CCO)CC5)cc4)cc3)c2)cn1 [Example 451, 2-amino-N-((3S,4R)-4-((4′-((4-(2-hydroxyethyl)piperazin-1-yl)methyl)-[1,1′-biphenyl]-4-yl)methoxy)tetrahydrofuran-3-yl)-5-(1-methyl-1H-pyrazol-4-yl)nicotinamide] | < 10 | < 100 |
| CN1CCN(Cc2ccc(-c3ccc(CO[C@H]4CCC[C@@H]4NC(=O)c4cc(-c5ccc(CN6CCOCC6)cc5)cnc4N)cc3)cc2)CC1 [Example 379, 2-amino-N-((1S,2S)-2-((4′-((4-methylpiperazin-1-yl)methyl)-[1,1′-biphenyl]-4-yl)methoxy)cyclopentyl)-5-(4-(morpholinomethyl)phenyl)nicotinamide] | < 10 | < 100 |
| CCc1cc(CO[C@H]2CNC[C@@H]2NC(=O)c2cc(-c3ccc(CN4CCN(C)CC4)cc3)cnc2N)ccc1C [Example 390, 2-amino-N-((3S,4S)-4-((3-ethyl-4-methylbenzyl)oxy)pyrrolidin-3-yl)-5-(4-((4-methylpiperazin-1-yl)methyl)phenyl)nicotinamide] | < 10 | 100 to 500 |
| CN1CCN(Cc2ccc(-c3ccc(CO[C@H]4CCC[C@@H]4NC(=O)c4cc(-c5ccc(O)cc5)cnc4N)cc3)cc2)CC1 [Example 372] | < 10 | < 100 |
